# Target: T1, HDAC6 enzyme (Homo sapiens, UniProt Q9UBN7)
# T1 construct: transducing full length HDAC6 gene into Sf-9 insect cells; GST; purchased SignalChem; host or cells: Sf-9 insect cells
# T1 sequence (Q9UBN7 1-1215): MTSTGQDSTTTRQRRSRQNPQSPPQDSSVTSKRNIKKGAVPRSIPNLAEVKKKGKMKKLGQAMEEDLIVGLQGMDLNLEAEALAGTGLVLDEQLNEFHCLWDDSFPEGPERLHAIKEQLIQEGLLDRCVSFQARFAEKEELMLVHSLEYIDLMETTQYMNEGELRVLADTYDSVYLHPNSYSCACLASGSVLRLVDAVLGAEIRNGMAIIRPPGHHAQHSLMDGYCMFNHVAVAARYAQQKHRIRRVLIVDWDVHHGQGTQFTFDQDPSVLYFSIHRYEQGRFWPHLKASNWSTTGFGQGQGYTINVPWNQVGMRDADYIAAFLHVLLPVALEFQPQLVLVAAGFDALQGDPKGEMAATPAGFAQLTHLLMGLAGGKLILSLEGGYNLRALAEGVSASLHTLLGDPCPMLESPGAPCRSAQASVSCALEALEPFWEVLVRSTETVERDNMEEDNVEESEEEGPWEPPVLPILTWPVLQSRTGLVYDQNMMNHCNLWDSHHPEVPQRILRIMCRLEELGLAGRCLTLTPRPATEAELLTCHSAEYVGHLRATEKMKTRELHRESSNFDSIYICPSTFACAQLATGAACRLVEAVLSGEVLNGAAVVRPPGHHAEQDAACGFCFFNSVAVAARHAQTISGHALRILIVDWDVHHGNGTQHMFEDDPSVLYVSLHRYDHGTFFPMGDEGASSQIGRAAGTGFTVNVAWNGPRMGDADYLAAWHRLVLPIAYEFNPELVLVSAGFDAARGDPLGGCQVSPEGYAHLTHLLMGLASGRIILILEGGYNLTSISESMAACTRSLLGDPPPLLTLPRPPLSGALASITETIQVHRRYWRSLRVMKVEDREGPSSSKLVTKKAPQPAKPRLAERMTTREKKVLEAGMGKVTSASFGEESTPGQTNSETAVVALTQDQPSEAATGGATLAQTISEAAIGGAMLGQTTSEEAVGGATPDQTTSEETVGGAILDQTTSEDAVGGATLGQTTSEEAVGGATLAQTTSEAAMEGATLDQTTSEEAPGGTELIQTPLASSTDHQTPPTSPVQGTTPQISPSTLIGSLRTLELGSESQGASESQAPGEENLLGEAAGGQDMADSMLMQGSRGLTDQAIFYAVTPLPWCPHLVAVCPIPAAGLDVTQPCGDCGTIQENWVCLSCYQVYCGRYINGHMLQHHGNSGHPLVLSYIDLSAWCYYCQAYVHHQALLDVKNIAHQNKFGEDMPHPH
# Experiment: HDAC6 enzyme inhibitory activity (HDAC-Glo I/II Assay kit)
# Assay type: biochemical
# Details: 10 μM; wells without enzyme = 100% inhibition
# How it was run: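 Luminescence read-out after 20 min reaction with HDAC-Glo substrate-developer, following 60 min room-temperature preincubation of compound with Sf-9-expressed, GST-purified full-length enzyme. Inhibition is relative to no-enzyme wells set as 100%.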
row,HDAC6 inhibitory rate (%) (10 μM),SMILES
1,100,"O=C1c2cc(-c3nnc(C(F)F)o3)ccc2CN1[C@@H]1CCN(C(=O)C2(C(F)(F)F)CC2)C[C@H]1c1ccc(F)cc1 [Example 508, 6-(5-(difluoro-methyl)-1,3,4-oxadiazol-2-yl)-2-((3R,4R)-3-(4-fluorophenyl)-1-((1-(trifluoro-methyl)cyclo-propyl)carbonyl)pipeiridin-4-yl) isoindolin-1-one]"

# Same assay, conditions: 10 μM; wells without enzyme = 100% inhibition; read-out: HDAC6 inhibitory rate (%) (10 μM)
row,inhibition at 10 µM [%],SMILES
1,91,"Cn1cc(N2Cc3ccc(-c4nnc(C(F)F)o4)cc3C2=O)c(Br)n1 [Example 492, 2-(3-bromo-1-methyl-1H-pyrazol-4-yl)-6-(5-(difluoro-methyl)-1,3,4-oxadiazol-2-yl) isoindolin-1-one]"
2,99,"Cn1cc(N2Cc3ccc(-c4nnc(C(F)F)o4)cc3C2=O)c(-c2ccccc2)n1 [Example 493, 6-(5-(difluoro-methyl)-1,3,4-oxadiazol-2-yl)-2-(1-methyl-3-phenyl-1H-pyrazol-4-yl) isoindolin-1-one]"
3,100,"COC(=O)N1CC[C@@H](N2Cc3ncc(-c4nnc(C(F)F)o4)cc3C2=O)[C@H](c2ccc(F)cc2)C1 [Example 494, methyl (3R,4R)-4-(3-(5-(difluoro-methyl)-1,3,4-oxadiazol-2-yl)-5-oxo-5,7-dihydro-6H-pyrrolo[3,4-b]pyridin-6-yl)-3-(4-fluoro-phenyl) piperidine-1-carboxylate]"
4,89,"N[C@@H]1CCCC(F)(F)[C@H]1N1Cc2ncc(-c3nnc(C(F)F)o3)cc2C1=O [Example 495, 6-((1S,6R)-6-amino-2,2-difluorocyclo-hexyl)-3-(5-(difluoro-methyl)-1,3,4-oxadiazol-2-yl)-6,7-dihydro-5H-pyrrolo [3,4-b] pyridin-5-one]"
5,100,"CC(C)(C)OC(=O)N[C@@H]1CCCC(F)(F)[C@H]1N1Cc2ncc(-c3nnc(C(F)F)o3)cc2C1=O [Example 496, tert-butyl ((1R,2S)-2-(3-(5-(difluoro-methyl)-1,3,4-oxadiazol-2-yl)-5-oxo-5,7-dihydro-6H-pyrrolo[3,4-b]pyridin-6-yl)-3,3-difluoro-cyclohexyl) carbamate]"
6,101,"O=C1c2cc(-c3nnc(C(F)F)o3)cnc2CN1[C@H]1[C@H](NC(=O)C(F)(F)C(F)(F)F)CCCC1(F)F [Example 497, N-((1R,2S)-2-(3-(5-(difluoro-methyl)-1,3,4-oxadiazol-2-yl)-5-oxo-5,7-dihydro-6H-pyrrolo[3,4-b]pyridin-6-yl)-3,3-difluoro-cyclohexyl)-2,2,3,3,3-pentafluoro-propanamide]"
7,100,"O=C(C1CC1)N1CC[C@@H](N2Cc3ncc(-c4nnc(C(F)F)o4)cc3C2=O)[C@H](c2ccc(F)cc2)C1 [Example 498, 6-((3R,4R)-1-(cyclopropyl-carbonyl)-3-(4-fluorophenyl)piperidin-4-yl)-3-(5-(difluoro-methyl)-1,3,4-oxadiazol-2-yl)-6,7-dihydro-5H-pyrrolo [3,4-b]pyridin-5-one]"
8,99,"COC(=O)N1CC[C@@H](N2Cc3ncc(-c4nnc(C(F)F)o4)cc3C2=O)[C@H](c2ccc(F)c(F)c2)C1 [Example 499, methyl (3R,4R)-4-(3-(5-(difluoro-methyl)-1,3,4-oxadiazol-2-yl)-5-oxo-5,7-dihydro-6H-pyrrolo[3,4-b]pyridin-6-yl)-3-(3,4-difluoro-phenyl) piperidine-1-carboxylate]"
9,99,"CC(F)(F)C(=O)N[C@@H]1CCCC(F)(F)[C@H]1N1Cc2ncc(-c3nnc(C(F)F)o3)cc2C1=O [Example 500, N-((1R,2S)-2-(3-(5-(difluoro-methyl)-1,3,4-oxadiazol-2-yl)-5-oxo-5,7-dihydro-6H-pyrrolo[3,4-b]pyridin-6-yl)-3,3-difluoro-cyclohexyl)-2,2-difluoro-propanamide]"
10,98,"O=C1c2cc(-c3nnc(C(F)F)o3)ccc2CN1N1CCOCC1c1ccccc1 (stereo not shown) [Example 501, 6-(5-(difluoro-methyl)-1,3,4-oxadiazol-2-yl)-2-(3-phenyl-morpholin-4-yl) isoindolin-1-one]"
11,100,"O=C1c2cc(-c3nnc(C(F)F)o3)cnc2CN1[C@@H]1CCCC[C@H]1n1cnc2ccccc21 [Example 502, 6-((1R,2R)-2-(1H-benzimidazol-1-yl)cyclohexyl)-3-(5-(difluoromethyl)-1,3,4-oxadiazol-2-yl)-6,7-dihydro-5H-pyrrolo[3,4-b]pyridin-5-one]"
12,99,"Cc1nc2ccccc2n1[C@@H]1CCCC[C@H]1N1Cc2ncc(-c3nnc(C(F)F)o3)cc2C1=O [Example 503, 3-(5-(difluoromethyl)-1,3,4-oxadiazol-2-yl)-6-((1R,2R)-2-(2-methyl-1H-benzimidazol-1-yl)cyclohexyl)-6,7-dihydro-5H-pyrrolo[3,4-b]pyridin-5-one]"
13,100,"COC(=O)N1CC[C@@H](N2Cc3ccc(-c4nnc(C(F)F)o4)cc3C2=O)[C@H](c2ccc(F)cc2)C1 [Example 505, methyl (3R,4R)-4-(6-(5-(difluoro-methyl)-1,3,4-oxadiazol-2-yl)-1-oxo-1,3-dihydro-2H-isoindol-2-yl)-3-(4-fluoro-phenyl) piperidine-1-carboxylate]"
14,99,"CC(F)(F)C(=O)N1CC[C@@H](N2Cc3ccc(-c4nnc(C(F)F)o4)cc3C2=O)[C@H](c2ccc(F)cc2)C1 [Example 506, 6-(5-(difluoro-methyl)-1,3,4-oxadiazol-2-yl)-2-((3R,4R)-1-(2,2-difluoro-propanoyl)-3-(4-fluorophenyl)piperidin-4-yl) isoindolin-1-one]"
15,100,"O=C1c2cc(-c3nnc(C(F)F)o3)ccc2CN1[C@@H]1CCN(C(=O)C2(F)CC2)C[C@H]1c1ccc(F)cc1 [Example 507, 6-(5-(difluoro-methyl)-1,3,4-oxadiazol-2-yl)-2-((3R,4R)-1-((1-fluorocyclo-propyl)carbonyl)-3-(4-fluoro-phenyl)piperidin-4-yl)isoindolin-1-one]"
16,99,"CC(=O)N1CC[C@@H](N2Cc3ccc(-c4nnc(C(F)F)o4)cc3C2=O)[C@H](c2ccc(F)cc2)C1 [Example 509, 2-((3R,4R)-1-acetyl-3-(4-fluorophenyl)piperidin-4-yl)-6-(5-(difluoro-methyl)-1,3,4-oxadiazol-2-yl) isoindolin-1-one]"
17,100,"O=C(N[C@H]1[C@H](N2Cc3ccc(-c4nnc(C(F)F)o4)cc3C2=O)CCCC1(F)F)OCc1ccccc1 [Example 510, benzyl ((1S,6R)-6-(6-(5-(difluoromethyl)-1,3,4-oxadiazol-2-yl)-1-oxo-1,3-dihydro-2H-isoindol-2-yl)-2,2-difluorocyclohexyl)carbamate]"
18,95,"N[C@H]1[C@H](N2Cc3ccc(-c4nnc(C(F)F)o4)cc3C2=O)CCCC1(F)F [Example 511, 2-((1R,2S)-2-amino-3,3-difluorocyclohexyl)-6-(5-(difluoromethyl)-1,3,4-oxadiazol-2-yl)isoindolin-1-one]"
19,99,"O=C1c2cc(-c3nnc(C(F)F)o3)ccc2CN1[C@@H]1CCCC(F)(F)[C@H]1NC(=O)C(F)(F)C(F)(F)F [Example 513, N-((1S,6R)-6-(6-(5-(difluoromethyl)-1,3,4-oxadiazol-2-yl)-1-oxo-1,3-dihydro-2H-isoindol-2-yl)-2,2-difluorocyclohexyl)-2,2,3,3,3-pentafluoropropanamide]"
20,99,"O=C1c2cc(-c3nnc(C(F)F)o3)ccc2CN1[C@@H]1CCC(F)(F)C[C@@H]1NC(=O)C(F)(F)C(F)(F)F [Example 515, N-((1S,2R)-2-(6-(5-(difluoro-methyl)-1,3,4-oxadiazol-2-yl)-1-oxo-1,3-dihydro-2H-isoindol-2-yl)-5,5-difluoro-cyclohexyl)-2,2,3,3,3-pentafluoro-propanamide]"
21,100,"CC(F)(F)C(=O)N[C@H]1CC(F)(F)CC[C@H]1N1Cc2ccc(-c3nnc(C(F)F)o3)cc2C1=O [Example 516, N-((1S,2R)-2-(6-(5-(difluoromethyl)-1,3,4-oxadiazol-2-yl)-1-oxo-1,3-dihydro-2H-isoindol-2-yl)-5,5-difluorocyclohexyl)-2,2-difluoropropanamide]"
